Measured values reported in patent US12281332B2, “Methods of enhancing development of renal organoids and methods of using the same” (President and Fellows of Harvard College, priority 2017, dated 2025).
“Also recorded” adds a separate entry of the source.

Legend:
Type in all cases: cell-based, human
[1] = tested on: kidney organoids; test: Abundance of vasculature in kidney organoids, PECAM1/CD31 immunostaining and Angiotool; conditions: for effect on vasculature formation / vascular growth (summary of studies): FBS 1.5 to 2%; for effect on the CD31+ population of cells (extent and abundance of vasculature): developing organoids age 11-14 Days, additives in advanced RPMI, static and perfused conditions; for vessel % area: high FSS, endogenous VEGF vs VEGF addition vs VEGF inhibition
Protocol: Methods: To determine effects of chemical additives on the developing developing organoids, the vesicles (age 11, 12, 13 and 14 Days) were treated with VEGF additives, GMEC media, PMA additives, antibiotics, or FBS or FCS additives and other components in advanced RPMI media as a base in both static and perfused conditions. The extent and abundance of vasculature was studied using immunostaining.
Confocal Z-stacks of PECAM1 were taken of fixed whole mount organoids, both iPSC and ESC derived, in the various culture conditions. The Z-stacks were taken at the limit of the confocal depth with each sample, roughly […] per sample which represents approximately the same volume per organoid analyzed. Those z-stacks were then flattened using ImageJ to a 2D max intensity projection (as required by the Angiotool for input). The default settings were employed on the Angiotool for analysis and vessel diameters of 4, 7, 10, and 14 were analyzed for each organoid. In all cases, the whole organoid was used for analysis.

[2] = tested on: kidney organoids; test: Association of PECAM1+ vasculature with LTL+ tubules, Imaris analysis; conditions: for vasculotubular association (percent of vasculature surface area overlapping with LTL+ tubules): 10 days of high flow culture, VEGF 100 ng/mL or VEGF inhibitor in the media
From the text: Additionally, enhanced PECAM1^+ networks under high FSS associate with tubular structures in both transverse and longitudinal orientations (FIG. 16(d) and FIG. 17). The researchers quantified the association between PECAM1^+ networks and LTL^+tubules using Imaris surface rendering, distance transformation, and masking tools and reveal that under high flow conditions the percent of vascular surface area in contact with tubules is increased nearly 3 fold in comparison to organoids in static culture (FIG. 17(d)).
Confocal Z-stacks of PECAM1 and LTL were taken of fixed whole mount organoids, both iPSC and ESC derived, in the various culture conditions. The Z-stacks were taken at the limit of the confocal depth with each sample, roughly […] per sample which represents approximately the same volume per organoid analyzed. Those z-stacks were then opened in Imaris imaging software. The confocal 3D rendering was turned into a vascular surface and a tubule surface. Then the Imaris surface on surface area contact tool was used to quantify the percent overlap between the vascular and tubular surfaces in 3D, values were reported in FIG. 17(d). In order to assess the average distance the vasculature was away from a tubule, first an Imaris distance transformation was performed on the tubule surface. Then the resulting channel was masked by the vascular surface to create a new masked distance transformation channel. That masked distance transformation channel was opened in Fiji (ImageJ) to retrieve a histogram of all the 3D points, from which we obtained a geometric mean for each sample which is reported in FIG. 17(c).

[3] = tested on: PODXL+ glomeruli-like compartments of kidney organoids; test: Vascular invasion of PODXL+ podocyte clusters in kidney organoids on chip, confocal imaging; conditions: high FSS, 10 days on chip; bevacizumab, VEGF 100 ng/mL
From the text: Glomerular structures of kidney organoids in static culture are largely avascular. Upon animal transplantation, host-derived vascularization of kidney organoids Promotes glomerular vascularization. To determine whether FSS-induced vascularization of organoids in vitro extends to glomerular compartments, PODXL^+ podocyte clusters invaded by MCAMI^+ PECAM1^+ vascular structures were quantified using confocal imaging, in static and high FSS conditions (FIG. 18A and FIG. 18B). […] Given that there is significant upregulation of VEGF-A expression with high FSS (FIG. 18C), organoids cultured under flow can be used to study the role of VEGF in glomerular vascularization in vitro.
As vessel % area is unchanged between endogenous VEGF, VEGF addition, and VEGF inhibition, the difference in glomerular vascularization cannot be attributed to increased abundance of vasculature alone. Meanwhile, the reduced junctional density and increased average vessel length in unperturbed VEGF conditions may be interpreted as vessels growing towards an endogenous VEGF gradient versus more random sporadic growth in the absence of a gradient. Growing with the endogenous VEGF gradient under high flow conditions may allow vessels to reach glomeruli-like compartments in time to invade rather than wrap Bowman's capsule-like structures. […]

| Molecule | effect on vasculature formation / vascular growth (summary of studies) [1] | effect on the CD31+ population of cells (extent and abundance of vasculature) [1] | vasculotubular association (percent of vasculature surface area overlapping with LTL+ tubules) [2] | vessel % area [1] | incidence of invasion of PODXL+ glomeruli-like compartments by PECAM1+MCAM+ vascular networks [3] | average distance in 3D between the vasculature and the tubules ([2]; high flow+VEGF compared with static) | outgrowth of endothelial-like cells ([1]; addition of VEGF) | vascular abundance ([1]; culture under FSS, VEGF added in the media) | vascular abundance ([1]; static culture, exogenous VEGF) |
| --- | --- | --- | --- | --- | --- | --- | --- | --- | --- |
| CCCCCCCCCCCCCC(=O)O[C@@H]1[C@@H](C)[C@@]2(O)[C@@H](C=C(CO)C[C@]3(O)C(=O)C(C)=C[C@@H]23)[C@@H]2C(C)(C)[C@]12OC(C)=O [PMA, reference compound] | did not help | no measureable effects |  |  |  |  |  |  |  |
| bevacizumab [reference compound] |  |  | decouples these associations and returns values consistent with static culture levels; also recorded: negated | unchanged | significantly reduced |  |  |  |  |
| vascular endothelial growth factor [VEGF] | did not help | no measureable effects | decouples these associations and returns values consistent with static culture levels; also recorded: negated | unchanged | significantly reduced | not statistically significantly different | robust outgrowth of endothelial-like cells | didn't change | did increase |
